The structures appear in SMILES notation. Read-outs that look alike come from different tables or passages of the source.

Assay [1] can be described thus: Cell growth inhibition, CellTiter-Glo Luminescent Cell Viability Assay. The assay is classed as cell-based. On the procedure:
Cell growth inhibitory activity of representative menin inhibitors was determined using CellTiter-Glo® Luminescent Cell Viability Assay. Cells were seeded in 384-well white opaque cell culture plates at a density of 2,000 cells/well with serially diluted compounds and incubated at 37° C. in an atmosphere of 95% air and 5% CO2 for 4 days. Cell viability was determined using the CellTiter-Glo® Luminescent Cell Viability Assay Kit (Promega, Madison, Wis.) according to the manufacture's instruction. Briefly, a volume of CellTiter-Glo® Reagent equal to the volume of cell culture medium was added to each well, and then the plates were incubated at room temperature for 10-20 minutes. The luminescent signal was measured using a Tecan Infinite M1000 multimode microplate reader (Tecan, Morrisville, N.C.). The half maximal inhibitory concentration (IC50) was calculated using the GraphPad Prism 5 software (GraphPad Software, La Jolla, Calif.).

Another assay concerns the target menin protein (Homo sapiens (Human), UniProt O00255). Description: biochemical. The assay is classed as binding. The following applies: FP competitive binding; menin protein 4 nM, FAM-MM2 probe 2 nM; read-out: Menin Binding Affinity IC50. The gist of the method: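 Competitive fluorescence polarization assay using FAM-labelled MLL1 peptide probe FAM-MM2 (2 nM final) preincubated with menin (4 nM final) in PBS with 0.02% bovine γ-globulin, 4% DMSO and 0.01% Triton X-100. Compounds were added and incubated 30 min at room temperature. IC50 came from nonlinear regression of competition curves, with Ki also derived.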

[2] abbreviates: MOLM-13, 96 h, MOLM13 cells, 4 days, CellTiter-Glo, read-out: Cell Growth Inhibition IC50 (μM) MOLM13.
[3] abbreviates: MV4-11, 96 h, MV4, 11 cells, 4 days, CellTiter-Glo, read-out: Cell Growth Inhibition IC50 (μM) MV4, 11.
Where [4] appears, read: MOLM-13, 96 h, read-out: Cell Growth Inhibition IC50 (μM) MOLM13, MOLM13 cells, 4 days, CellTiter-Glo.
Setting [5] is: MV4-11, 96 h, read-out: Cell Growth Inhibition IC50 (μM) MV4, 11, MV4, 11 cells, 4 days, CellTiter-Glo.

Sequence of menin protein (O00255 whole entry): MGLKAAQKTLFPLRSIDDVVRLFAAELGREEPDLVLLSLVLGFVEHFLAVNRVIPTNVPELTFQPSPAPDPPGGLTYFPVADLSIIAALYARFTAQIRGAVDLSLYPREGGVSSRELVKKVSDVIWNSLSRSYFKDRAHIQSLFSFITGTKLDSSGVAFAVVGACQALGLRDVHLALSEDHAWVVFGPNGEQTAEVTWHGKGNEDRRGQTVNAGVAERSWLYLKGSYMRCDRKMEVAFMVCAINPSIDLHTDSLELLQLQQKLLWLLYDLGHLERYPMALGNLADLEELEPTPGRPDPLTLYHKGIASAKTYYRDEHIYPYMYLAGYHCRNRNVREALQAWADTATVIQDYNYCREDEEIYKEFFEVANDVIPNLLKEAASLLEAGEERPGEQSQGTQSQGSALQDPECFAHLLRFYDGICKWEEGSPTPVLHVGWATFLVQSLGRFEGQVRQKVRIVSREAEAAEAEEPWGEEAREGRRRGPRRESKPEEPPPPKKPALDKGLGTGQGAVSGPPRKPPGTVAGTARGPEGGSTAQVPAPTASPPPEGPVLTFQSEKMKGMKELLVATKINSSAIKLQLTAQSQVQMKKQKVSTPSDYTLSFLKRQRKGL

As for `O=S(=O)(c1ccc(N2CC(CN3CCC(C4(C5CCCC5)NCCc5ccccc54)CC3)C2)cc1)C1CCCC1` (stereo not drawn) [compound 146, 1-cyclopentyl-1-(1-((1-(4-(cyclopentylsulfonyl)phenyl)azetidin-3-yl)methyl)piperidin-4-yl)-1,2,3,4-tetrahydroisoquinoline], the results for the IC50 (in assay [1] (setting [2]); in assay [1] (setting [3]); at menin protein) were 1.9 ± 1.2 µM, 0.785 ± 0.247 µM and 13 nM, respectively.

For the molecule `N#Cc1ccc(OCCCN2CCC(C3(C4CCCC4)CNCc4ccccc43)CC2)cc1` (stereo not drawn) [compound 19, 4-(3-(4-(4-cyclopentyl-1,2,3,4-tetrahydroisoquinolin-4-yl)piperidin-1-yl)propoxy)benzonitrile], the figures for the IC50 (in assay [1] (setting [4]); in assay [1] (setting [5]); on menin protein) were 7.3 µM, 1.6 ± 0.1 µM and 61 nM, respectively.

On to `CNC(=O)N[C@H]1CCC[C@@H]1C1(C2CCN(CC3CN(c4ccc(S(=O)(=O)C5CC5)cc4)C3)CC2)CN(C)Cc2ccccc21` (mixture of isomers) [compound 283, rac-1-((1S,2R)-2-(4-(1-((1-(4-(cyclopropylsulfonyl)phenyl)azetidin-3-yl)methyl)piperidin-4-yl)-2-methyl-1,2,3,4-tetrahydroisoquinolin-4-yl)cyclopentyl)-3-methylurea], for which the figures for the IC50 (in assay [1] (setting [4]); in assay [1] (setting [5]); on menin protein) were 0.53 µM, 0.21 µM and 10 nM, respectively.

Take `CCN1Cc2ccccc2C(C2CCCC2)(C2CCN(CC3CN(c4ccc(S(=O)(=O)c5cnn(CC)c5)cc4)C3)CC2)C1` (stereo not drawn) [compound 103, 4-cyclopentyl-2-ethyl-4-(1-((1-(4-((1-ethyl-1H-pyrazol-4-yl)sulfonyl)phenyl)azetidin-3-yl)methyl)piperidin-4-yl)-1,2,3,4-tetrahydroisoquinoline]: the values for the IC50 (in assay [1] (setting [2]); in assay [1] (setting [3]); on menin protein) were 2.26 µM, 0.49 µM and 12 nM, respectively.

`COC(=O)N[C@H]1CCC[C@@H]1C(C#N)(c1ccccc1)C1CCN(CC2CN(c3ccc(S(=O)(=O)C4CC4)cc3Cl)C2)CC1` (mixture of isomers) [compound 395, methyl rac-((1S,2R)-2-((1-((1-(2-chloro-4-(cyclopropylsulfonyl)phenyl)azetidin-3-yl)methyl)piperidin-4-yl)(cyano)(phenyl)methyl)cyclopentyl)carbamate]: the IC50 in assay [1] (setting [4]) stood at 2.29 µM; in assay [1] (setting [5]), 0.65 µM; on menin protein it was 16 nM.

In the case of `O=S(=O)(c1ccc(N2CC(CN3CCC(C4(C5CCCC5)NCCc5ccccc54)CC3)C2)cc1)C1CCCCC1` (stereo not drawn) [compound 92, 1-(1-((1-(4-(cyclohexylsulfonyl)phenyl)azetidin-3-yl)methyl)piperidin-4-yl)-1-cyclopentyl-1,2,3,4-tetrahydroisoquinoline], the values for the 50% inhibitory concentration (IC50) (in assay [1] (setting [2]); in assay [1] (setting [3]); at menin protein) were 1.6 ± 0.1 µM, 0.961 ± 0.384 µM and 19 nM, respectively.

As to `CCN1Cc2ccccc2C(C2CCCC2)(C2CCN(CC3CN(c4ccc(S(=O)(=O)c5ccc(C(=O)O)cc5)cc4)C3)CC2)C1` (stereo not drawn) [compound 164, 4-((4-(3-((4-(4-cyclopentyl-2-ethyl-1,2,3,4-tetrahydroisoquinolin-4-yl)piperidin-1-yl)methyl)azetidin-1-yl)phenyl)sulfonyl)benzoic acid], the IC50 in assay [1] (setting [2]) stood at 0.72 µM; in assay [1] (setting [3]) it was 0.27 µM; at menin protein, 8 nM.

For `CCN1Cc2ccccc2C(C2CCCC2)(C2CCN(CC3CN(c4ccc(S(=O)(=O)C5CC5)cc4)C3)CC2)C1` (stereo not drawn) [compound 137, 4-cyclopentyl-4-(1-((1-(4-(cyclopropylsulfonyl)phenyl)azetidin-3-yl)methyl)piperidin-4-yl)-2-ethyl-1,2,3,4-tetrahydroisoquinoline], the values for the IC50 (in assay [1] (setting [2]); in assay [1] (setting [3]); at menin protein) were 1.9 ± 0.7 µM, 1 ± 0.2 µM and 8 nM, respectively.

Regarding `N#Cc1ccc(N2CCC(CN3CCC(C4(C5CCCC5)NCCc5ccccc54)CC3)C2)cc1` (stereo not drawn) [compound 113, 4-(3-((4-(1-cyclopentyl-1,2,3,4-tetrahydroisoquinolin-1-yl)piperidin-1-yl)methyl)pyrrolidin-1-yl)benzonitrile], the results for the IC50 (in assay [1] (setting [2]); in assay [1] (setting [3]); on menin protein) were 2.4 µM, 1.6 µM and 67 nM, respectively.

In the case of `CNC(=O)N[C@H]1CCC[C@@H]1C1(C2CCN(CC3CN(c4ccc(S(=O)(=O)C5CC5)cc4)C3)CC2)CN(C(C)C)Cc2ccccc21` (mixture of isomers) [compound 288, rac-1-((1S,2R)-2-(4-(1-((1-(4-(cyclopropylsulfonyl)phenyl)azetidin-3-yl)methyl)piperidin-4-yl)-2-isopropyl-1,2,3,4-tetrahydroisoquinolin-4-yl)cyclopentyl)-3-methylurea], the IC50 in assay [1] (setting [4]) is 48.8 µM; in assay [1] (setting [5]), 0.35 µM; on menin protein, 12 nM.

Consider `COC(=O)N[C@H]1CCC[C@@H]1C(C#N)(c1ccccc1)C1CCN(CC2CN(c3ccc(S(=O)(=O)C4CC4)cc3)C2)CC1` (mixture of isomers) [compound 319, rac-methyl ((1S,2R)-2-(cyano(1-((1-(4-(cyclopropylsulfonyl)phenyl)azetidin-3-yl)methyl)piperidin-4-yl)(phenyl)methyl)cyclopentyl)carbamate], for which the half-maximal inhibitory concentration (IC50) in assay [1] (setting [4]) was 2.77 µM; in assay [1] (setting [5]), 0.33 µM; at menin protein, 31 nM.

With `CCN1Cc2ccccc2C(C2CCCC2)(C2CCN(CC3(F)CN(c4ccc(S(=O)(=O)C5CC5)cc4)C3)CC2)C1` (stereo not drawn) [compound 141, 4-cyclopentyl-4-(1-((1-(4-(cyclopropylsulfonyl)phenyl)-3-fluoroazetidin-3-yl)methyl)piperidin-4-yl)-2-ethyl-1,2,3,4-tetrahy36droisoquinoline], the figures for the IC50 (in assay [1] (setting [2]); in assay [1] (setting [3]); on menin protein) were 54.7 µM, 4.7 µM and 28 nM, respectively.

For `CNC(=O)N[C@H]1CCC[C@@H]1C(CN)(c1ccccc1)C1CCN(CC2CN(c3ccc(S(=O)(=O)c4ccccc4)cc3)C2)CC1` (mixture of isomers) [compound 321, rac-1-((1S,2R)-2-(2-amino-1-phenyl-1-(1-((1-(4-(phenylsulfonyl)phenyl)azetidin-3-yl)methyl)piperidin-4-yl)ethyl)cyclopentyl)-3-methylurea], the IC50 in assay [1] (setting [4]) was found to be 1.25 µM; in assay [1] (setting [5]), 0.73 µM; on menin protein, 4 nM.

`CCN1Cc2ccccc2C(C2CCCC2)(C2CCN(CC3CN(c4ccc(S(=O)(=O)c5ccnc6cnccc56)cc4)C3)CC2)C1` (stereo not drawn) [compound 158, 4-((4-(3-((4-(4-cyclopentyl-2-ethyl-1,2,3,4-tetrahydroisoquinolin-4-yl)piperidin-1-yl)methyl)azetidin-1-yl)phenyl)sulfonyl)-1,7-naphthyridine]: the IC50 in assay [1] (setting [2]) stood at 1.56 µM; in assay [1] (setting [3]) it was 0.8 µM; on menin protein, 8 nM.

As to `CNC(=O)O[C@H]1CCC[C@@H]1C(C#N)(c1ccccc1)C1CCN(CC2CN(c3ccc(S(=O)(=O)c4ccccc4)cc3)C2)CC1` (mixture of isomers) [compound 225, rac-(1S,2R)-2-(cyano(phenyl)(1-((1-(4-(phenylsulfonyl)phenyl)azetidin-3-yl)methyl)piperidin-4-yl)methyl)cyclopentyl methylcarbamate], the IC50 in assay [1] (setting [4]) is 0.82 µM; in assay [1] (setting [5]), 0.24 µM; on menin protein it was 9 nM.

For the origin of these results see patent US10899738B2 (THE REGENTS OF THE UNIVERSITY OF MICHIGAN, priority 2016, dated 2021).
